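Cells were grown in 96-well plates and exposed to each compound for 48 hours at five concentrations; endpoints were interpolated linearly between bracketing concentrations, or set to the highest concentration if not reached. GI50: concentration for 50% inhibition of growth. TGI marks complete inhibition of growth.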
How the values were obtained:
Test in all cases: NCI-60 cell line screen, 48 h
RXF 393 renal = system: RXF 393 renal
HCT-15 colon = system: HCT-15 colon
SK-OV-3 ovarian = system: SK-OV-3 ovarian
TK-10 renal = system: TK-10 renal
UACC-62 melanoma = system: UACC-62 melanoma
ACHN renal = system: ACHN renal
MOLT-4 leukemia = system: MOLT-4 leukemia
OVCAR-5 ovarian = system: OVCAR-5 ovarian
SK-MEL-28 melanoma = system: SK-MEL-28 melanoma
A549 NSCLC = system: A549 NSCLC
A498 renal = system: A498 renal
SNB-19 CNS = system: SNB-19 CNS
MALME-3M melanoma = system: MALME-3M melanoma
M14 melanoma = system: M14 melanoma
U251 CNS = system: U251 CNS
RPMI-8226 leukemia = system: RPMI-8226 leukemia
CCRF-CEM leukemia = system: CCRF-CEM leukemia
NCI-H23 lung = system: NCI-H23 lung
MDA-MB-435 = system: MDA-MB-435
K-562 leukemia = system: K-562 leukemia
SR leukemia = system: SR leukemia
HS 578T breast = system: HS 578T breast
NCI/ADR-RES ovarian = system: NCI/ADR-RES ovarian
SK-MEL-5 melanoma = system: SK-MEL-5 melanoma
LOX IMVI melanoma = system: LOX IMVI melanoma
OVCAR-4 ovarian = system: OVCAR-4 ovarian
HCT-116 colon = system: HCT-116 colon
T-47D breast = system: T-47D breast
PC-3 prostate = system: PC-3 prostate
IGROV1 ovarian = system: IGROV1 ovarian
UACC-257 melanoma = system: UACC-257 melanoma
NCI-H522 lung = system: NCI-H522 lung
OVCAR-8 ovarian = system: OVCAR-8 ovarian
HOP-62 NSCLC = system: HOP-62 NSCLC
SNB-75 CNS = system: SNB-75 CNS
SF-539 CNS = system: SF-539 CNS
NCI-H226 lung = system: NCI-H226 lung
SW-620 colon = system: SW-620 colon
DU-145 prostate = system: DU-145 prostate
SK-MEL-2 melanoma = system: SK-MEL-2 melanoma
CAKI-1 renal = system: CAKI-1 renal
786-0 renal = system: 786-0 renal
MCF7 breast = system: MCF7 breast
UO-31 renal = system: UO-31 renal
OVCAR-3 ovarian = system: OVCAR-3 ovarian
SF-295 CNS = system: SF-295 CNS
EKVX NSCLC = system: EKVX NSCLC
HCC-2998 colon = system: HCC-2998 colon
COLO 205 colon = system: COLO 205 colon
SF-268 CNS = system: SF-268 CNS
BT-549 breast = system: BT-549 breast
HL-60(TB) leukemia = system: HL-60(TB) leukemia
HT29 colon = system: HT29 colon
HOP-92 NSCLC = system: HOP-92 NSCLC
MDA-MB-231 breast = system: MDA-MB-231 breast
NCI-H460 lung = system: NCI-H460 lung
SN12C renal = system: SN12C renal
KM12 colon = system: KM12 colon

With `COc1cc(/C=C/C(=O)c2cccc(-n3cc(-c4ccc(Cl)cc4)[nH]c3=O)c2)ccc1O` the GI50 (RXF 393 renal) was 2.99 µM, the TGI (RXF 393 renal) was 9.13 µM and the GI50 (HCT-15 colon) was 1.8 µM. For the same compound, the TGI (HCT-15 colon) was 7.07 µM, the GI50 (SK-OV-3 ovarian) was 4.78 µM and the TGI (SK-OV-3 ovarian) was > 30.2 µM. For the same compound, the GI50 (TK-10 renal) was 6.6 µM, the TGI (TK-10 renal) was > 65.5 µM and the GI50 (UACC-62 melanoma) was 2.5 µM. For the same compound, the TGI (UACC-62 melanoma) was 9.59 µM, the GI50 (ACHN renal) was 2.19 µM and the TGI (ACHN renal) was 4.95 µM. For the same compound, the GI50 (MOLT-4 leukemia) was 1.62 µM, the TGI (MOLT-4 leukemia) was > 25.1 µM and the GI50 (OVCAR-5 ovarian) was 6.45 µM. For the same compound, the TGI (OVCAR-5 ovarian) was 15.1 µM, the GI50 (SK-MEL-28 melanoma) was 2.07 µM and the TGI (SK-MEL-28 melanoma) was 4.18 µM. For the same compound, the GI50 (A549 NSCLC) was 4.67 µM, the TGI (A549 NSCLC) was > 37.7 µM and the GI50 (A498 renal) was 5.78 µM. The TGI (A498 renal) was 16.7 µM, the GI50 (SNB-19 CNS) was 3.52 µM and the TGI (SNB-19 CNS) was 15.6 µM. It also gave a GI50 (MALME-3M melanoma) of 5.99 µM, a TGI (MALME-3M melanoma) of 22.2 µM and a GI50 (M14 melanoma) of 3.51 µM. It also gave a TGI (M14 melanoma) of 15.2 µM, a GI50 (U251 CNS) of 2.19 µM and a TGI (U251 CNS) of 6.01 µM. For the same compound, the GI50 (RPMI-8226 leukemia) was 1.33 µM, the TGI (RPMI-8226 leukemia) was 3.76 µM and the GI50 (CCRF-CEM leukemia) was 0.706 µM. It also gave a TGI (CCRF-CEM leukemia) of 4.42 µM, a GI50 (NCI-H23 lung) of 4.43 µM and a TGI (NCI-H23 lung) of 24.4 µM. The GI50 (MDA-MB-435) was 2.75 µM, the TGI (MDA-MB-435) was > 47.5 µM and the GI50 (K-562 leukemia) was 2.36 µM. For the same compound, the TGI (K-562 leukemia) was > 26.4 µM, the GI50 (SR leukemia) was 11.8 µM and the TGI (SR leukemia) was > 100 µM. The GI50 (HS 578T breast) was 3.78 µM, the TGI (HS 578T breast) was 26.9 µM and the GI50 (NCI/ADR-RES ovarian) was 2.78 µM. The TGI (NCI/ADR-RES ovarian) was > 30.5 µM, the GI50 (SK-MEL-5 melanoma) was 1.88 µM and the TGI (SK-MEL-5 melanoma) was 5.22 µM. It also gave a GI50 (LOX IMVI melanoma) of 1.64 µM, a TGI (LOX IMVI melanoma) of 4.03 µM and a GI50 (OVCAR-4 ovarian) of 3.11 µM. The TGI (OVCAR-4 ovarian) was > 23.7 µM, the GI50 (HCT-116 colon) was 1.57 µM and the TGI (HCT-116 colon) was 3.82 µM. It also gave a GI50 (T-47D breast) of 3.39 µM, a TGI (T-47D breast) of 17.8 µM and a GI50 (PC-3 prostate) of 1.95 µM. It also gave a TGI (PC-3 prostate) of 6.97 µM, a GI50 (IGROV1 ovarian) of 2 µM and a TGI (IGROV1 ovarian) of 5.61 µM. For the same compound, the GI50 (UACC-257 melanoma) was 5.53 µM, the TGI (UACC-257 melanoma) was 18.6 µM and the GI50 (NCI-H522 lung) was 1.81 µM. For the same compound, the TGI (NCI-H522 lung) was 11 µM, the GI50 (OVCAR-8 ovarian) was 2.39 µM and the TGI (OVCAR-8 ovarian) was > 27.3 µM. It also gave a GI50 (HOP-62 NSCLC) of 3.87 µM, a TGI (HOP-62 NSCLC) of 15 µM and a GI50 (SNB-75 CNS) of 2.36 µM. The TGI (SNB-75 CNS) was 10.2 µM, the GI50 (SF-539 CNS) was 1.86 µM and the TGI (SF-539 CNS) was 4.05 µM. The GI50 (NCI-H226 lung) was 6.38 µM, the TGI (NCI-H226 lung) was 19.5 µM and the GI50 (SW-620 colon) was 2.3 µM. For the same compound, the TGI (SW-620 colon) was 7.71 µM, the GI50 (DU-145 prostate) was 2.6 µM and the TGI (DU-145 prostate) was 7.55 µM. It also gave a GI50 (SK-MEL-2 melanoma) of 3.61 µM, a TGI (SK-MEL-2 melanoma) of 14.4 µM and a GI50 (CAKI-1 renal) of 5.02 µM. The TGI (CAKI-1 renal) was 44.9 µM, the GI50 (786-0 renal) was 2.54 µM and the TGI (786-0 renal) was 6.69 µM. The GI50 (MCF7 breast) was 1.44 µM, the TGI (MCF7 breast) was 7.98 µM and the GI50 (UO-31 renal) was 1.26 µM. The TGI (UO-31 renal) was > 37 µM, the GI50 (OVCAR-3 ovarian) was 1.56 µM and the TGI (OVCAR-3 ovarian) was 3.57 µM. It also gave a GI50 (SF-295 CNS) of 8.08 µM, a TGI (SF-295 CNS) of 31.8 µM and a GI50 (EKVX NSCLC) of 6.6 µM. The TGI (EKVX NSCLC) was > 95.2 µM, the GI50 (HCC-2998 colon) was 2.35 µM and the TGI (HCC-2998 colon) was 5.5 µM. It also gave a GI50 (COLO 205 colon) of 4.88 µM, a TGI (COLO 205 colon) of 16 µM and a GI50 (SF-268 CNS) of 2.93 µM. It also gave a TGI (SF-268 CNS) of 12.6 µM, a GI50 (BT-549 breast) of 2.89 µM and a TGI (BT-549 breast) of 10.9 µM. For the same compound, the GI50 (HL-60(TB) leukemia) was 4.56 µM, the TGI (HL-60(TB) leukemia) was > 24.3 µM and the GI50 (HT29 colon) was 2.97 µM. For the same compound, the TGI (HT29 colon) was > 100 µM, the GI50 (HOP-92 NSCLC) was 1.52 µM and the TGI (HOP-92 NSCLC) was 7.05 µM. For the same compound, the GI50 (MDA-MB-231 breast) was 3.46 µM, the TGI (MDA-MB-231 breast) was > 39.1 µM and the GI50 (NCI-H460 lung) was 6.43 µM. For the same compound, the TGI (NCI-H460 lung) was 21.7 µM, the GI50 (SN12C renal) was 2.81 µM and the TGI (SN12C renal) was > 60.9 µM. For the same compound, the GI50 (KM12 colon) was 1.6 µM and the TGI (KM12 colon) was 3.42 µM.

Source: PubChem BioAssay (NCI)
